From PMC12366525, “Characterization of allosteric modulators that disrupt androgen receptor co-activator protein-protein interactions to alter transactivation–Drug leads for metastatic castration resistant prostate cancer” (SLAS discovery : advancing life sciences R & D, 2023)

Columns and labels:
PSA = assay: Dot blot of PSA secretion by C4–2 cells; assay type: cell-based, human; details: 10 nM DHT 24 h; 20 μM compound 3 h pre-exposure
Experimental: To determine PSA secretion levels, C4–2 cells were seeded at 1.4 × 10 [5] cells/well in 12-well plates and treated as described above for PSA cell expression experiments. […] 500 μL of conditioned media supernatant was added to the wells of 96-well to Bio-blot apparatus (BioRad, Hercules, CA) containing a nitrocellulose membrane and was allowed to pass through and attach to the membrane under gravity for 3–4 h at room temperature. The membrane was washed 1x with 500 μL TBS under vacuum, blocked with 1% BSA in TBST for 1 h, and then incubated overnight at 4 °C with the primary rabbit anti-hPSA antibody (Cell Signaling, Danvers, MA) diluted 1:1000 in TBST plus 1% BSA. Dot blots were washed 3x in 10 mL of TBST for 10 min, then incubated for 1 h with secondary goat anti-rabbit-IgG HRP conjugated antibody (Invitrogen, Carlsbad, CA) diluted 1:10,000 in TBST plus 1% Bovine Serum Albumin (BSA), washed 3x with 10 mL of TBST for 10 min, and then developed with Pierce ECL western blotting substrate. Images of ECL dot blots were acquired on an iBright 1500 imaging system and quantified by iBright image analysis software.

AR-LBD = target: T1, AR-LBD (Homo sapiens, UniProt P10275); assay: H^3-DHT radioligand competition binding assay; details: 10 nM H^3-DHT, recombinant His6-AR-LBD
T1 construct: The pET28a-AR-LBD (622–919) construct [78] was a gift; made in house
T1 sequence (P10275 622-919): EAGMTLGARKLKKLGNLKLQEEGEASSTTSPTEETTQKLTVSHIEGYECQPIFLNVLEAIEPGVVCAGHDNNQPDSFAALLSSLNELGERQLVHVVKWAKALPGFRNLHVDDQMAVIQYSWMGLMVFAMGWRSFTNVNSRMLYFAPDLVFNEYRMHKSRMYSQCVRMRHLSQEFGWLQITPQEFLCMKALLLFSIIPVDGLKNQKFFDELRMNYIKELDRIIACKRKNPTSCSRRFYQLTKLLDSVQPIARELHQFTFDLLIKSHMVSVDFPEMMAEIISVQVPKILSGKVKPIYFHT
Experimental: The His6-AR-LBD H^3-DHT competition binding assay has been described previously. Briefly, 96-well Cu^2+-coated plates (ThermoFisher) were incubated overnight at 4 °C with 5 μg per well His6-AR-LBD in 100 μL of PBS. Unbound His6-AR-LBD was aspirated, the plate was washed 3 × with 100 μL of 0.05% Tween 20 in PBS and then blocked with 100 μL of 1 mg/mL BSA in PBS for 1 h. After three more washes with 100 μL of PBS and 0.05% Tween 20, 40 μL of PBS was added to wells followed by 5 μL each of diluted compounds and 100 nM H^3-DHT transferred into the wells using a Matrix pipettor. Compounds were tested between 0.098 to 50 μM in the presence of 10 nM H^3-DHT. After 1 h, compounds and H^3-DHT were aspirated and washed 3 × with 0.05% Tween 20 in PBS; 100 μL of Microscint™−20 micro-scintillation cocktail buffer (Perkin Elmer, Waltham, MA) was added to each well, plates were sealed with adhesive plastic covers; and the counts per minute (CPMs) were captured in a TopCount NXT microtiter plate reader (Perkin Elmer, Waltham, MA).

AR = target: T2, AR (Homo sapiens, UniProt P10275, T878A); assay: AlphaScreen cellular thermal shift assay (CETSA) for AR in C4–2 cells; assay type: cell-based; details: for Effect on AR thermal stability, AlphaScreen CETSA: 1 h at 37 °C prior to heat shock at 46 °C, hits and enzalutamide 20 μM, DHT 10 nM; for Effect on maximum efficacy of DHT-enhanced AR thermal stabilization / Right shift of the DHT EC50 for AR thermal stabilization: 20 or 50 μM compound pre-treatment
T2 construct: DHT-induced full length AR directed TA; endogenous in cells; host or cells: C4–2 castration resistant prostate cancer cells
T2 sequence (P10275 1-920 T878A): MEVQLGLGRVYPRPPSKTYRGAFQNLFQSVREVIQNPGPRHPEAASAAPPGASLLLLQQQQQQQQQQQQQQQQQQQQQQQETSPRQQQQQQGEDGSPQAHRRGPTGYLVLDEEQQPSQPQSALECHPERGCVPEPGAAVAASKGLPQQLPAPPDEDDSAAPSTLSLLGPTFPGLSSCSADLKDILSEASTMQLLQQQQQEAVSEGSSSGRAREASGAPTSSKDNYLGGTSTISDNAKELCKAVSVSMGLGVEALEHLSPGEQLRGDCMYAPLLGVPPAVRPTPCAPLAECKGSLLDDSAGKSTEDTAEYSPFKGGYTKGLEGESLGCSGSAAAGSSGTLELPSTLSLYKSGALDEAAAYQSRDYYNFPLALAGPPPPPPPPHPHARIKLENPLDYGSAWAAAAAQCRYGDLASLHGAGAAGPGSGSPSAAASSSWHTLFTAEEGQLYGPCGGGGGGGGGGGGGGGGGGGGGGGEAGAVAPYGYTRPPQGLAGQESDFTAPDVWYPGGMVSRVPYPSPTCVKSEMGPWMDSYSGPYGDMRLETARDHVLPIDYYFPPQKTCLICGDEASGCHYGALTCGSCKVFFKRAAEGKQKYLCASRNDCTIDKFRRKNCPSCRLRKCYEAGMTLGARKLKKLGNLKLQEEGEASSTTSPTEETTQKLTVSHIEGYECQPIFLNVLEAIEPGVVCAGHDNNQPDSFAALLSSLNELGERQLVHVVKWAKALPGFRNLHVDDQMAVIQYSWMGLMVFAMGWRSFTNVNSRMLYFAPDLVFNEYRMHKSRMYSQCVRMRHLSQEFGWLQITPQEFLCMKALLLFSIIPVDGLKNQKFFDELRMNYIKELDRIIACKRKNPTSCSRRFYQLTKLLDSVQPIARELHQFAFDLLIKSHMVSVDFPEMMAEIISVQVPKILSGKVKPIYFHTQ
Experimental: Mouse anti-hAR (BD Biosciences, San Jose, CA) and rabbit anti-hAR (MilliporeSigma, Burlington, MA) were diluted 1:330 and 1:1000 fold respectively in PBS containing 0.5 mg/mL BSA and 4 μL of the combined diluted AR antibody pair were added to 4 μL of the cell lysate supernatant in a 384-well plate and incubated in the dark for 30 min at room temperature. To each well of the 384-well plate 4 μL of a combined solution of anti-mouse IgG Alpha Donor and anti-rabbit IgG (Fc specific) AlphaLISA Acceptor beads suspended in 1x lysis buffer was added to yield a final donor and acceptor bead concentrations of 40 μg/mL and 10 μg/mL respectively.

| SMILES | C4-2 cell supernatants PSA Dot Blot, relative to DMSO (100%) (PSA) | IC50 (AR-LBD) | Effect on AR thermal stability, AlphaScreen CETSA (AR) | Effect on maximum efficacy of DHT-enhanced AR thermal stabilization (AR) | Right shift of the DHT EC50 for AR thermal stabilization (AR) |
| --- | --- | --- | --- | --- | --- |
| Cc1ccccc1-c1cc(O)c2c(c1)CN(c1nc(C(N)=O)cs1)CCO2 [S1–1] | 57.7% | 43.7 µM | did not stabilize AR in the AlphaScreen assay but blocked DHT-enhanced AR thermal stabilization | – | – |
| Cc1ccccc1-c1cc(O)c2c(c1)CN(c1nccs1)CCO2 [S1–3] | – | > 100 µM | – | – | – |
| Cc1nsc(NC(=O)N2CCC(Sc3ccccc3C)CC2)n1 [S2–6] | 12.8% | – | did not stabilize AR in the AlphaScreen assay but blocked DHT-enhanced AR thermal stabilization | reduced the maximum efficacy of DHT-enhanced AR thermal stabilization | > 10 fold |
| Cc1c(-c2ccccc2F)[nH]c2ccc(CNC(=O)CCc3cn[nH]c3)cc12 [S3–11] | 25.5% | – | did not stabilize AR in the AlphaScreen assay but blocked DHT-enhanced AR thermal stabilization | at 50 μM reduced the maximum efficacy of DHT | ≥ 10 fold |
| Cc1c(-c2ccccc2F)[nH]c2ccc(CNC(=O)c3ccc(CO)o3)cc12 [S3–14] | – | 62.9 µM | – | – | – |
